“Also recorded” adds a separate entry of the source.
Tested on: Arabidopsis seedlings
Experiment: Arabidopsis salt stress tolerance assay (½ MS + 100 mM NaCl)
Assay type: in vivo, Arabidopsis thaliana

## NC1(C(=O)O)CC1 [ACC, 1-aminocyclopropane-1-carboxylic acid]
100 nM ACC, ½ MS + 100 mM NaCl, 12 days after transfer
  effect on salt stress tolerance compared with SA187: could largely mimic the beneficial activity of SA187; also recorded: partially mimics the effect of SA187

## O=[N+]([O-])[O-].[Ag+] [AgNO3, silver nitrate]
In vivo
  SA187-induced tolerance to salt stress in presence of inhibitor: did not exhibit any SA187-induced tolerance to salt stress

From US10524471B2, “Compositions and methods for increasing salt tolerance in plants” (King Abdullah University of Science and Technology, priority 2016, dated 2020)
